Experimental data from the NIST ThermoML archive (doi:10.1021/je300557g).

Experiment: xn = mol fraction of the nth substance listed
Conditions: 101 kPa, Liquid; for mass density: Vibrating tube method

CCCC[n+]1cccc(C)c1.F[B-](F)(F)F [1-butyl-3-methylpyridinium tetrafluoroborate] + CCO
Conditions	kinematic viscosity, 293.15 K [m2/s]	kinematic viscosity, 303.15 K [m2/s]	kinematic viscosity, 313.15 K [m2/s]	kinematic viscosity, 323.15 K [m2/s]	mass density, 293.15 K [kg/m3]	mass density, 303.15 K [kg/m3]	mass density, 313.15 K [kg/m3]	mass density, 323.15 K [kg/m3]
x1 = 0.0521	2.07e-06	1.68e-06	1.4e-06	1.18e-06	855.55	847.17	838.85	830.02
x1 = 0.0964	2.67e-06	2.12e-06	1.75e-06	1.47e-06	900.79	892.48	884.31	875.68
x1 = 0.1964	4.31e-06	3.36e-06	2.71e-06	2.24e-06	977.43	969.49	961.48	953.37
x1 = 0.321	6.84e-06	5.15e-06	4.19e-06	3.39e-06	1041.5	1033.92	1026.2	1018.52
x1 = 0.3936	9.28e-06	6.82e-06	5.54e-06	4.49e-06	1068.86	1061.42	1053.9	1046.35
x1 = 0.4941	1.44e-05	1.03e-05	8.05e-06	6.24e-06	1098.93	1091.66	1084.35	1076.96
x1 = 0.59	2.21e-05	1.5e-05	1.15e-05	8.86e-06	1121.77	1114.64	1107.46	1100.21
x1 = 0.691	3.66e-05	2.32e-05	1.76e-05	1.28e-05	1141.6	1134.58	1127.48	1120.38
x1 = 0.7952	6.13e-05	3.68e-05	2.61e-05	1.81e-05	1158.8	1151.88	1144.87	1137.9
x1 = 0.85	8.37e-05	4.86e-05	3.28e-05	2.23e-05	1166.81	1159.93	1152.99	1146.06
x1 = 0.8992	0.000111	6.25e-05	4.03e-05	2.67e-05	1173.47	1166.61	1159.75	1152.86
x1 = 0.9477	0.00015	8.29e-05	5.08e-05	3.29e-05	1179.57	1172.74	1165.95	1159.11

CCCC[n+]1cccc(C)c1.F[B-](F)(F)F [1-butyl-3-methylpyridinium tetrafluoroborate] + CO
Conditions	kinematic viscosity, 293.15 K [m2/s]	kinematic viscosity, 303.15 K [m2/s]	kinematic viscosity, 313.15 K [m2/s]	kinematic viscosity, 323.15 K [m2/s]	mass density, 293.15 K [kg/m3]	mass density, 303.15 K [kg/m3]	mass density, 313.15 K [kg/m3]	mass density, 323.15 K [kg/m3]
x1 = 0.0481	1.03e-06	8.95e-07	7.88e-07	7e-07	876.92	868.11	858.9	850
x1 = 0.0975	1.45e-06	1.22e-06	1.06e-06	9.17e-07	937.91	929.46	920.91	912.45
x1 = 0.1973	2.72e-06	2.2e-06	1.88e-06	1.61e-06	1017.57	1009.42	1001.41	993.31
x1 = 0.3001	4.45e-06	3.44e-06	3.04e-06	2.54e-06	1067.85	1059.92	1052.02	1044.13
x1 = 0.4013	7.03e-06	5.64e-06	4.73e-06	3.95e-06	1101.07	1093.38	1085.61	1077.93
x1 = 0.4969	1.2e-05	9.04e-06	7.23e-06	5.68e-06	1123.81	1116.36	1108.79	1101.32
x1 = 0.5985	1.98e-05	1.45e-05	1.08e-05	8.38e-06	1142.18	1134.95	1127.63	1120.38
x1 = 0.6972	3.36e-05	2.31e-05	1.69e-05	1.27e-05	1156.2	1149.14	1142.07	1134.99
x1 = 0.7942	5.92e-05	3.53e-05	2.51e-05	1.76e-05	1167.41	1160.48	1153.59	1146.64
x1 = 0.8427	7.8e-05	4.59e-05	3.12e-05	2.13e-05	1172.3	1165.41	1158.59	1151.69
x1 = 0.8978	0.00011	6.28e-05	4.03e-05	2.67e-05	1177.37	1170.53	1163.75	1156.91
x1 = 0.9689	0.000171	9.3e-05	5.65e-05	3.61e-05	1183.27	1176.47	1169.72	1162.95

CCCC[n+]1ccc(C)cc1.F[B-](F)(F)F [1-butyl-4-methylpyridinium tetrafluoroborate] + CCO
Conditions	kinematic viscosity, 293.15 K [m2/s]	kinematic viscosity, 303.15 K [m2/s]	kinematic viscosity, 313.15 K [m2/s]	kinematic viscosity, 323.15 K [m2/s]	mass density, 293.15 K [kg/m3]	mass density, 303.15 K [kg/m3]	mass density, 313.15 K [kg/m3]	mass density, 323.15 K [kg/m3]
x1 = 0.0481	1.95e-06	1.61e-06	1.34e-06	1.14e-06	852	843.78	835.55	827.17
x1 = 0.0952	2.57e-06	2.07e-06	1.69e-06	1.41e-06	900.2	892.25	884.1	875.8
x1 = 0.1896	4.08e-06	3.17e-06	2.53e-06	2.08e-06	972.12	964.56	956.53	948.48
x1 = 0.2856	6.35e-06	4.76e-06	3.75e-06	3.03e-06	1024.13	1016.72	1008.96	1001.26
x1 = 0.3839	9.91e-06	7.25e-06	5.54e-06	4.4e-06	1063.87	1056.57	1049.08	1041.7
x1 = 0.5297	1.96e-05	1.44e-05	1.05e-05	7.4e-06	1107.23	1100.11	1092.88	1085.83
x1 = 0.5858	2.57e-05	1.76e-05	1.33e-05	9.33e-06	1120.51	1113.47	1106.29	1099.32
x1 = 0.6862	4e-05	2.78e-05	1.96e-05	1.36e-05	1140.91	1133.97	1126.84	1119.98
x1 = 0.7889	7.27e-05	4.37e-05	3.05e-05	2.08e-05	1158.26	1151.41	1144.3	1137.51
x1 = 0.8418	9.79e-05	5.71e-05	3.87e-05	2.59e-05	1166.08	1159.26	1152.16	1145.41
x1 = 0.8942	0.000132	7.41e-05	4.81e-05	3.15e-05	1173.2	1166.4	1159.32	1152.61
x1 = 0.946	0.000177	9.52e-05	5.94e-05	3.79e-05	1179.69	1172.89	1165.84	1159.18

CCCC[n+]1ccc(C)cc1.F[B-](F)(F)F [1-butyl-4-methylpyridinium tetrafluoroborate] + CO
Conditions	kinematic viscosity, 293.15 K [m2/s]	kinematic viscosity, 303.15 K [m2/s]	kinematic viscosity, 313.15 K [m2/s]	kinematic viscosity, 323.15 K [m2/s]	mass density, 293.15 K [kg/m3]	mass density, 303.15 K [kg/m3]	mass density, 313.15 K [kg/m3]	mass density, 323.15 K [kg/m3]
x1 = 0.0477	1.02e-06	8.83e-07	7.78e-07	6.88e-07	876.71	867.94	858.74	849.6
x1 = 0.0958	1.42e-06	1.2e-06	1.02e-06	8.92e-07	936.07	927.56	918.89	910.02
x1 = 0.2055	2.83e-06	2.29e-06	1.91e-06	1.62e-06	1021.53	1013.48	1005.4	997.15
x1 = 0.2889	4.57e-06	3.6e-06	2.92e-06	2.44e-06	1062.26	1054.51	1046.65	1038.82
x1 = 0.3846	7.5e-06	5.73e-06	4.53e-06	3.7e-06	1095.45	1087.98	1080.32	1072.88
x1 = 0.4866	1.31e-05	9.56e-06	7.3e-06	5.78e-06	1121.16	1113.92	1106.46	1099.31
x1 = 0.589	2.12e-05	1.58e-05	1.15e-05	8.6e-06	1140.6	1133.51	1126.23	1119.29
x1 = 0.7073	3.61e-05	2.59e-05	1.9e-05	1.3e-05	1157.8	1150.84	1143.72	1136.94
x1 = 0.7963	6.42e-05	4.11e-05	2.8e-05	1.93e-05	1168.12	1161.22	1154.18	1147.48
x1 = 0.8459	8.43e-05	5.16e-05	3.41e-05	2.29e-05	1173.12	1166.24	1159.23	1152.56
x1 = 0.8947	0.00012	6.92e-05	4.41e-05	2.85e-05	1177.58	1170.73	1163.73	1157.09
x1 = 0.9465	0.000168	9.14e-05	5.59e-05	3.56e-05	1181.89	1175.06	1168.07	1161.45

CCCC[n+]1ccccc1.F[B-](F)(F)F [1-butylpyridinium tetrafluoroborate] + CO
Conditions	kinematic viscosity, 293.15 K [m2/s]	kinematic viscosity, 303.15 K [m2/s]	kinematic viscosity, 313.15 K [m2/s]	kinematic viscosity, 323.15 K [m2/s]	mass density, 293.15 K [kg/m3]	mass density, 303.15 K [kg/m3]	mass density, 313.15 K [kg/m3]	mass density, 323.15 K [kg/m3]
x1 = 0.0478	1.08e-06	8.99e-07	7.44e-07	6.21e-07	878.25	869.29	860.54	852.41
x1 = 0.0959	1.55e-06	1.27e-06	1.03e-06	8.64e-07	940.74	931.43	923.47	916
x1 = 0.1952	2.79e-06	2.21e-06	1.75e-06	1.44e-06	1026.08	1017.92	1010.59	1003.55
x1 = 0.2938	4.62e-06	3.53e-06	2.73e-06	2.2e-06	1080.36	1072.63	1065.38	1058.43
x1 = 0.3916	7.4e-06	5.61e-06	4.29e-06	3.41e-06	1117.45	1109.94	1102.7	1095.78
x1 = 0.4921	1.19e-05	8.77e-06	6.56e-06	5.13e-06	1145.14	1137.76	1130.52	1123.61
x1 = 0.5949	2e-05	1.4e-05	1.03e-05	7.68e-06	1166.53	1159.2	1152.11	1145.11
x1 = 0.6989	3.26e-05	2.22e-05	1.56e-05	1.16e-05	1183.41	1176.16	1169.22	1162.18
x1 = 0.7972	5.32e-05	3.4e-05	2.31e-05	1.65e-05	1196.34	1189.23	1182.46	1175.36
x1 = 0.8478	7.2e-05	4.49e-05	2.97e-05	2.07e-05	1202.15	1195.1	1188.42	1181.32
x1 = 0.8978	9.63e-05	5.72e-05	3.68e-05	2.51e-05	1207.4	1200.46	1193.84	1186.75
x1 = 0.9471	0.00013	7.39e-05	4.61e-05	3.06e-05	1212.3	1205.38	1198.8	1191.71
